From ChEMBL document CHEMBL4613212, “Insights of synthetic analogues of anti-leprosy agents” (Bioorg Med Chem, 2019)
In brackets after ≈: the same amount, converted by molar mass.

Tests used:
Mycobacterium leprae [1] = assay: Anti-leprotic activity against Mycobacterium leprae primary cultures at 4 weeks assessed as ATP level per 10^7 cells at 5.0 mg/L measured by bioluminescence assay (reference value: 314 +/- 46 pg); type: functional
Mycobacterium leprae [2] = assay: Anti-leprotic activity against Mycobacterium leprae primary cultures at 4 weeks assessed as ATP level per 10^7 cells at 10.0 mg/L measured by bioluminescence assay (reference value: 314 +/- 46 pg); type: functional
Mycobacterium leprae [3] = assay: Anti-leprotic activity against Mycobacterium leprae primary cultures at 4 weeks assessed as ATP level per 10^7 cells at 15.0 mg/L measured by bioluminescence assay (reference value: 314 +/- 46 pg); type: functional
Mycobacterium leprae [4] = assay: Anti-leprotic activity against Mycobacterium leprae primary cultures at 4 weeks assessed as [3H]thymidine uptake per 5 times 10^7 cells at 5.0 mg/L (reference value: 0.95 +/- 0.01 pmol); type: functional
Mycobacterium leprae [5] = assay: Anti-leprotic activity against Mycobacterium leprae primary cultures at 4 weeks assessed as [3H]thymidine uptake per 5 times 10^7 cells at 10.0 mg/L (reference value: 0.95 +/- 0.01 pmol); type: functional
Mycobacterium leprae [6] = assay: Anti-leprotic activity against Mycobacterium leprae primary cultures at 4 weeks assessed as [3H]thymidine uptake per 5 times 10^7 cells at 15.0 mg/L (reference value: 0.95 +/- 0.01 pmol); type: functional
Mycobacterium leprae [7] = assay: Anti-leprotic activity against Mycobacterium leprae subcultures at 4 weeks assessed as ATP level per 10^7 cells at 5.0 mg/L measured by bioluminescence assay (reference value: 462 +/- 64 pg); type: functional
Mycobacterium leprae [8] = assay: Anti-leprotic activity against Mycobacterium leprae subcultures at 4 weeks assessed as ATP level per 10^7 cells at 10.0 mg/L measured by bioluminescence assay (reference value: 462 +/- 64 pg); type: functional
Mycobacterium leprae [9] = assay: Anti-leprotic activity against Mycobacterium leprae subcultures at 4 weeks assessed as ATP level per 10^7 cells at 15.0 mg/L measured by bioluminescence assay (reference value: 462 +/- 64 pg); type: functional
Mycobacterium leprae [10] = assay: Anti-leprotic activity against Mycobacterium leprae subcultures at 4 weeks assessed as [3H]thymidine uptake per 5 times 10^7 cells at 5.0 mg/L (reference value: 1.28 +/- 0.14 pmol); type: functional
Mycobacterium leprae [11] = assay: Anti-leprotic activity against Mycobacterium leprae subcultures at 4 weeks assessed as [3H]thymidine uptake per 5 times 10^7 cells at 10.0 mg/L (reference value: 1.28 +/- 0.14 pmol); type: functional
Mycobacterium leprae [12] = assay: Anti-leprotic activity against Mycobacterium leprae subcultures at 4 weeks assessed as [3H]thymidine uptake per 5 times 10^7 cells at 15.0 mg/L (reference value: 1.28 +/- 0.14 pmol); type: functional
Mycobacterium leprae [13] = assay: Antimicrobial activity against Mycobacterium leprae; type: functional
Mycobacterium leprae [14] = assay: Anti-leprotic activity against rifampicin-susceptible Mycobacterium leprae subcultures at 4 weeks assessed as ATP level per 10^7 cells at 0.2 mg/L measured by bioluminescence assay (reference value: 425 +/- 64 pg); type: functional
Mycobacterium leprae [15] = assay: Anti-leprotic activity against rifampicin-susceptible Mycobacterium leprae subcultures at 4 weeks assessed as ATP level per 10^7 cells at 0.3 mg/L measured by bioluminescence assay (reference value: 425 +/- 64 pg); type: functional
Mycobacterium leprae [16] = assay: Anti-leprotic activity against rifampicin-susceptible Mycobacterium leprae subcultures at 4 weeks assessed as ATP level per 10^7 cells at 0.1 mg/L measured by bioluminescence assay (reference value: 425 +/- 64 pg); type: functional
Mycobacterium leprae [17] = assay: Anti-leprotic activity against rifampicin-susceptible Mycobacterium leprae primary cultures at 4 weeks assessed as [3H]thymidine uptake per 5 times 10^7 cells at 0.3 mg/L incubated for 24 hrs (reference value: 1.05 +/- 0.16 pmol); type: functional
Mycobacterium leprae [18] = assay: Anti-leprotic activity against rifampicin-susceptible Mycobacterium leprae primary cultures at 4 weeks assessed as ATP level per 10^7 cells at 0.1 mg/L measured by bioluminescence assay (reference value: 332 +/- 46 pg); type: functional
Mycobacterium leprae [19] = assay: Anti-leprotic activity against rifampicin-susceptible Mycobacterium leprae primary cultures at 4 weeks assessed as ATP level per 10^7 cells at 0.2 mg/L measured by bioluminescence assay (reference value: 332 +/- 46 pg); type: functional
Mycobacterium leprae [20] = assay: Anti-leprotic activity against rifampicin-susceptible Mycobacterium leprae primary cultures at 4 weeks assessed as ATP level per 10^7 cells at 0.3 mg/L measured by bioluminescence assay (reference value: 332 +/- 46 pg); type: functional
Mycobacterium leprae [21] = assay: Anti-leprotic activity against rifampicin-susceptible Mycobacterium leprae primary cultures at 4 weeks assessed as ATP level per 10^7 cells at 0.4 mg/L measured by bioluminescence assay (reference value: 332 +/- 46 pg); type: functional
Mycobacterium leprae [22] = assay: Anti-leprotic activity against rifampicin-susceptible Mycobacterium leprae primary cultures at 4 weeks assessed as [3H]thymidine uptake per 5 times 10^7 cells at 0.1 mg/L incubated for 24 hrs (reference value: 1.05 +/- 0.16 pmol); type: functional
Mycobacterium leprae [23] = assay: Anti-leprotic activity against rifampicin-susceptible Mycobacterium leprae primary cultures at 4 weeks assessed as [3H]thymidine uptake per 5 times 10^7 cells at 0.2 mg/L incubated for 24 hrs (reference value: 1.05 +/- 0.16 pmol); type: functional
Mycobacterium leprae [24] = assay: Anti-leprotic activity against rifampicin-susceptible Mycobacterium leprae primary cultures at 4 weeks assessed as [3H]thymidine uptake per 5 times 10^7 cells at 0.4 mg/L incubated for 24 hrs (reference value: 1.05 +/- 0.16 pmol); type: functional
Mycobacterium leprae [25] = assay: Anti-leprotic activity against rifampicin-susceptible Mycobacterium leprae subcultures at 4 weeks assessed as ATP level per 10^7 cells at 0.4 mg/L measured by bioluminescence assay (reference value: 425 +/- 64 pg); type: functional
Mycobacterium leprae [26] = assay: Anti-leprotic activity against rifampicin-susceptible Mycobacterium leprae subcultures at 4 weeks assessed as [3H]thymidine uptake per 5 times 10^7 cells at 0.1 mg/L incubated for 24 hrs (reference value: 1.41 +/- 0.20 pmol); type: functional
Mycobacterium leprae [27] = assay: Anti-leprotic activity against rifampicin-susceptible Mycobacterium leprae subcultures at 4 weeks assessed as [3H]thymidine uptake per 5 times 10^7 cells at 0.2 mg/L incubated for 24 hrs (reference value: 1.41 +/- 0.20 pmol); type: functional
Mycobacterium leprae [28] = assay: Anti-leprotic activity against rifampicin-susceptible Mycobacterium leprae subcultures at 4 weeks assessed as [3H]thymidine uptake per 5 times 10^7 cells at 0.3 mg/L incubated for 24 hrs (reference value: 1.41 +/- 0.20 pmol); type: functional
Mycobacterium leprae [29] = assay: Anti-leprotic activity against rifampicin-susceptible Mycobacterium leprae subcultures at 4 weeks assessed as [3H]thymidine uptake per 5 times 10^7 cells at 0.4 mg/L incubated for 24 hrs (reference value: 1.41 +/- 0.20 pmol); type: functional
Mycobacterium leprae [30] = assay: Anti-leprotic activity against Mycobacterium leprae infected in BALB/c weanling mouse assessed as bacteria killing at 20 mg/kg, ip administrated for 60 days and measured after 1 year by most probable number technique analysis relative to control; type: functional
Mycobacterium leprae [31] = assay: Anti-leprotic activity against Mycobacterium leprae infected in BALB/c weanling mouse assessed as bacteria killing at 20 mg/kg, ip administrated for 60 days and measured after 1 year by Spearman-Karber technique analysis relative to control; type: functional
Monocyte [32] = assay: Antiinflammatory activity in human monocytes assessed as inhibition of LPS-induced TNFaplha production at 50 uM preincubated for 15 mins followed by LPS addition and measured after 4 hrs by ELISA relative to control; type: functional
Monocyte [33] = assay: Antiinflammatory activity in human monocytes assessed as inhibition of LPS-induced TNFaplha production at 25 uM preincubated for 15 mins followed by LPS addition and measured after 4 hrs by ELISA relative to control; type: functional
Monocyte [34] = assay: Antiinflammatory activity in human monocytes assessed as inhibition of LPS-induced TNFaplha production at 5 uM preincubated for 15 mins followed by LPS addition and measured after 4 hrs by ELISA relative to control; type: functional
[35] = Cytotoxicity against LPS-induced human monocytes assessed as cell viability at 50 uM by tryphan blue staining based assay relative to control; set-up: species or system Monocyte; conditions: read-out: Activity
Monocyte [36] = assay: Antiinflammatory activity in human monocytes assessed as inhibition of LPS-induced TNFaplha production at 0.5 uM preincubated for 15 mins followed by LPS addition and measured after 4 hrs by ELISA relative to control; type: functional
[37] = Cytotoxicity against LPS-induced human monocytes assessed as cell viability at 25 uM by tryphan blue staining based assay relative to control; set-up: species or system Monocyte; conditions: read-out: Activity
[38] = Cytotoxicity against LPS-induced human monocytes assessed as cell viability at 5 uM by tryphan blue staining based assay relative to control; set-up: species or system Monocyte; conditions: read-out: Activity
[39] = Cytotoxicity against LPS-induced human monocytes assessed as cell viability at 0.5 uM by tryphan blue staining based assay relative to control; set-up: species or system Monocyte; conditions: read-out: Activity
[40] = test system: Mycobacterium tuberculosis; assay: Antimycobacterial activity against Mycobacterium tuberculosis H37Rv by BACTEC radiometric growth assay; type: functional
Mycobacterium leprae [41] = assay: Inhibition of PGL1 synthesis in Mycobacterium leprae infected Swiss Webster mouse macrophages assessed as decrease in [U-14C]PA incorporation at 2 uM preincubated for 4 days post infection followed by [U-14C]PA addition and measured after 7 days by liquid scintillation counter analysis relative to control; type: functional
[42] = test system: Mycobacterium tuberculosis; assay: Antitubercular activity against Mycobacterium tuberculosis H37Rv ATCC 27294 incubated for 7 days by microplate alamar blue assay; type: functional; conditions: H37Rv ATCC 27294, 168 h

Compound | Activity (Mycobacterium leprae [15]) [pg] | Activity (Mycobacterium leprae [17]) [pmol] | Activity (Mycobacterium leprae [20]) [pg] | Activity (Mycobacterium leprae [21]) [pg] | Activity (Mycobacterium leprae [23]) [pmol] | Activity (Mycobacterium leprae [24]) [pmol] | Activity (Mycobacterium leprae [25]) [pg] | Activity (Mycobacterium leprae [27]) [pmol] | Activity (Mycobacterium leprae [28]) [pmol] | Activity (Mycobacterium leprae [29]) [pmol] | inhibition at 50 µM (Monocyte [32]) [%] | inhibition at 25 µM (Monocyte [33]) [%] | inhibition at 5 µM (Monocyte [34]) [%] | viability at 50 µM [35] [%] | further results
COc1cc(Cc2cnc(N)nc2N)cc(OC)c1Br [BRODIMOPRIM] |  |  |  |  |  |  |  |  |  |  |  |  |  |  | Activity (Mycobacterium leprae [1]): 296 pg; Activity (Mycobacterium leprae [2]): 108 pg; Activity (Mycobacterium leprae [3]): 0 pg; Activity (Mycobacterium leprae [4]): 0.88 pmol; Activity (Mycobacterium leprae [5]): 0.24 pmol; Activity (Mycobacterium leprae [6]): 0 pmol; Activity (Mycobacterium leprae [7]): 346 pg; Activity (Mycobacterium leprae [8]): 109 pg; Activity (Mycobacterium leprae [9]): 0 pg; Activity (Mycobacterium leprae [10]): 1.1 pmol; Activity (Mycobacterium leprae [11]): 0.27 pmol; Activity (Mycobacterium leprae [12]): 0 pmol; MIC (Mycobacterium leprae [13]): 0.025 µg/mL (≈ 0.0737 µM)
CCC(C)N1CCN(c2cc(O)c3nc4c5c6c7c(C)c(O)c5c(=O)c(c-4oc3c2)NC(=O)/C(C)=C\C=C\[C@H](C)[C@H](O)[C@@H](C)[C@@H](O)[C@@H](C)[C@H](OC(C)=O)[C@H](C)[C@@H](OC)/C=C/O[C@@](C)(O7)C6=O)CC1 (stereo in doubt; form 1) | 0 | 0 | 0 | 0 | 0.76 | 0 | 0 | 1.18 | 0.84 | 0 |  |  |  |  | Activity (Mycobacterium leprae [14]): 235 pg; Activity (Mycobacterium leprae [16]): 335 pg; Activity (Mycobacterium leprae [18]): 279 pg; Activity (Mycobacterium leprae [19]): 233 pg; Activity (Mycobacterium leprae [22]): 0.92 pmol; Activity (Mycobacterium leprae [26]): 0 pmol
NC[C@H]1O[C@H](O[C@H]2[C@H](O)[C@@H](O[C@H]3O[C@H](CO)[C@@H](O)[C@H](N)[C@H]3O)[C@H](N)C[C@@H]2N)[C@H](N)C[C@@H]1O [TOBRAMYCIN] |  |  |  |  |  |  |  |  |  |  |  |  |  |  | Activity (Mycobacterium leprae [30]): 28.7%; Activity (Mycobacterium leprae [31]): 37%
CCCN1CCN(c2cc(O)c3nc4c5c6c7c(C)c(O)c5c(=O)c(c-4oc3c2)NC(=O)/C(C)=C\C=C\[C@H](C)[C@H](O)[C@@H](C)[C@@H](O)[C@@H](C)[C@H](OC(C)=O)[C@H](C)[C@@H](OC)/C=C/O[C@@](C)(O7)C6=O)CC1 | 0 | 0 | 0 | 0 | 0.79 | 0 | 0 | 1.3 | 0.84 | 0 |  |  |  |  | Activity (Mycobacterium leprae [14]): 0 pg; Activity (Mycobacterium leprae [16]): 369 pg; Activity (Mycobacterium leprae [18]): 298 pg; Activity (Mycobacterium leprae [19]): 245 pg; Activity (Mycobacterium leprae [22]): 0.97 pmol; Activity (Mycobacterium leprae [26]): 0 pmol
GENTAMICIN |  |  |  |  |  |  |  |  |  |  |  |  |  |  | Activity (Mycobacterium leprae [30]): 58.5%; Activity (Mycobacterium leprae [31]): 60%
O=C1c2ccccc2C(=O)N1c1cnc(O)nc1O |  |  |  |  |  |  |  |  |  |  | < 10 | < 10 | < 10 | 91 | 
O=C1c2ccccc2C(=O)N1c1ccc(F)c(F)c1 |  |  |  |  |  |  |  |  |  |  | 100 | 100 | 84 | 78 | inhibition at 0.5 µM (Monocyte [36]): < 10%; viability at 25 µM [37]: 88%; viability at 5 µM [38]: 95%; viability at 0.5 µM [39]: 92%
CO[C@H]1/C=C/O[C@@]2(C)Oc3c(C)c(O)c4c(O)c(c(/C=N/N5CCN(C)CC5)c(O)c4c3C2=O)NC(=O)/C(C)=C\C=C\[C@H](C)[C@H](O)[C@@H](C)[C@@H](O)[C@@H](C)[C@H](OC(C)=O)[C@@H]1C [RIFAMPIN] | 0 | 0 | 0 | 0 | 0.7 | 0 | 0 | 0 | 0.73 | 0 |  |  |  |  | MIC [40]: 2 µg/mL (≈ 2.43 µM); inhibition at 2 µM (Mycobacterium leprae [41]): 86%; MIC [42]: 25 µg/mL (≈ 30.4 µM)
CCC1(N2C(=O)c3ccccc3C2=O)C(=O)NC(=O)N(c2ccccc2)C1=O (configuration not stated) |  |  |  |  |  |  |  |  |  |  | 100 | 100 | 88 | 68 | inhibition at 0.5 µM (Monocyte [36]): 12%; viability at 25 µM [37]: 73%; viability at 5 µM [38]: 80%; viability at 0.5 µM [39]: 87%
